Key:
Type in all cases: cell-based
SUP-B15 cells [1] = test: Annexin V/propidium iodide apoptosis, SUP-B15; conditions: 48 hour; approximately 10×IC50 (Withaferin A, X001), 4×IC50 (X003)
Method: (§1) Cell proliferation was analyzed using MTS assay and Trypan Blue exclusion. Annexin V-FITC/Propidium Iodide flow cytometry was used to analyze the induction of apoptosis in SUP-B15 cells after treatment with anolides. Cell cycle analysis was performed using propidium iodide flow cytometry. Modulation of BCR-ABL and downstream effector proteins was determined by western blot analysis. Syngery between withanolides and TKIs was evaluated using MTS viability to calculate combination indices. Apoptotic synergy was evaluated using Annexin V/PI.
At no concentrations was the population of cells in necrosis significant.

SUP-B15 Ph+ ALL cells = test: MTS assay, SUP-B15; conditions: for IC50: Homo sapiens, SUP-B15
Method: as §1

[2] = test system: human melanoma SKMEL28 cells; test: MTS cell viability assay, SKMEL28; conditions: Homo sapiens; for IC50: SK-MEL-28, 72 h; for IC90: SK-MEL-28, Table 2
Procedure, shortened: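 SKMEL28 melanoma cells in DMEM with 10% heat-inactivated FBS were seeded at 1-2×10^4 cells/mL and exposed to withanolides for 72 h. Viability was measured by MTS reagent, incubated 3 h at 37 °C, with formazan absorbance read at 490 nm.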

[3] = test system: Salmonella typhimurium TA100; test: Cytotoxicity in tester strain TA100 without S9
Mia PaCa-2 = test: Pancreatic cancer cell viability, Mia PaCa-2; conditions: Homo sapiens, MIA PaCa2, read-out: IC50
Method: (§2) The activity of the withanolides of this invention were tested in pancreatic cancer cells. […] Moreover, IC50 values were determined for these compounds (Table 14).

MRC-5 = test: MTS cell viability assay, MRC-5; conditions: Homo sapiens, MRC5, Table 1, 72-hour treatment
melanoma cells B16F10 = test: MTS cell viability assay, B16F10; conditions: Mus musculus; for IC50: B16-F10, Table 1, 72-hour treatment; for IC90: B16-F10, Table 2
Procedure, shortened: (§3)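 JMAR and MDA1986 head and neck SCC cells and B16F10 melanoma cells grown in DMEM with 10% heat-inactivated FBS at 37 °C, 5% CO2, seeded at 1-2×10^4 cells/mL. Viability measured by MTS after 72-hour compound treatment, 3-hour reagent incubation, formazan absorbance at 490 nm.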

[4] = test system: squamous cell carcinoma of head and neck cells MDA1986; test: MTS cell viability assay, MDA1986; conditions: Table 1, 72-hour treatment
Procedure, shortened: as §3

UMSCC-2 HNSCC cells = test: Annexin V/PI staining and flow cytometry, UMSCC-2
Method: In similar analysis with X003, 50% of UMSCC-2 HNSCC cells underwent apoptosis (early and late) at 1 μM, while 90% of cells underwent apoptosis at 3 μM. Apoptosis with 1 μM X003 was confirmed with PARP cleavage and caspase 3 activation in NCI-H727 cells.

normal MRC-5 fibroblasts = test: MTS assay, normal MRC-5 fibroblasts (Example 7); conditions: Homo sapiens, MRC5
Method: as §1

[5] = test system: DRO81-1 medullary thyroid cancer cells; test: MTS cell viability assay, DRO81-1; conditions: Table 1; DRO81-1; 72-hour treatment; read-out: IC50
Method: (§4) Human carcinoid cells, NCI-H727 (ATCC, Manassas, Va.), were cultured under standard conditions. Squamous cell carcinoma of head and neck cells, MDA1986 (Myers, et al. (2002) Clin. Cancer Res. 8:293) and JMAR (Swan, et al. (2003) Oral Oncol. 39:648-55); and melanoma cells lines B16F10 (ATCC, Manassas, Va.) and SKMEL28 (CLS, Eppelheim, Germany) were cultured in DMEM medium supplemented with 10% heat-inactivated fetal bovine serum (Sigma-Aldrich, St. Louis, Mo.), 1×MEM-essential amino acid, 1×MEM vitamin, and penicillin/streptomycin (Sigma-Aldrich, St. Louis, Mo.) in a humid environment of 5% CO2 at 37° C. Activity of withanolides against DRO81-1 and TT medullary thyroid cancer cells was also determined.
(§5) Cells were cultured in 96 well plates at a concentration of 1-2×10^4 cells/mL. Cell viability was assessed with the nonradioactive cell proliferation MTS assay using Cell Titer 96AQUEOUS One Solution Reagent (PROMEGA, Madison, Wis.), according to the manufacturer's instruction. After a 72-hour treatment, 20 μL of Cell Titer 96AQUEOUS One Solution Reagent were added to each well and incubated for 3 hours at 37° C. 5% CO2, and formazan absorbance was measured at 490 nm.

[6] = test system: squamous cell carcinoma of head and neck cells JMAR; test: MTS cell viability assay, JMAR; conditions: for IC50: Table 1, 72-hour treatment; for IC90: Table 2
Procedure, shortened: as §3

SUP-B15 cells [7] = test: Cell cycle analysis by PI flow cytometry, SUP-B15
Method: as §1

SUP-B15 Ph+ALL cells = test: Combination with imatinib, MTS viability, SUP-B15; conditions: 16 combinations
Method: as §1

BT20 = test: MTS assay, BT20
Method: Cell proliferation was analyzed using MTS assay.

[8] = test system: caspase-3, PARP, BRCA-1, HSF1, mutant p53, Notch1, Jagged1 in MDA-MB-231 cells; test: Western blot, MDA-MB-231; conditions: 24-hour or 48-hour treatment
HS766T = test: Pancreatic cancer cell viability, HS766T; conditions: read-out: IC50
Method: as §2

[9] = test system: human carcinoid cells NCI-H727; test: MTS cell viability assay, NCI-H727; conditions: Table 1, NCI-H727, 72-hour treatment, read-out: IC50
Method: as §4, §5

SUP-B15 cells [10] = test: Trypan blue exclusion assay, SUP-B15; conditions: 5×, 2×, 1×, 0.5×IC50
Method: as §1, with “Syngery” left out

[11] = Table 3, treated for 72 hours, NA = no activity

For CC1=C(CO)C(=O)O[C@@H]([C@@H](C)C2CC[C@H]3[C@@H]4C[C@H]5O[C@]56[C@@H](O)C=CC(=O)[C@]6(CO)[C@H]4CC[C@]23C)C1 (stereo partly shown) [Compound X001], the induction of apoptosis (SUP-B15 cells [1]) was “almost all cells were in either late or early apoptosis”, the IC50 (SUP-B15 Ph+ ALL cells) was 350 nM and the IC50 ([2]; Table 1, 72-hour treatment) was 5060 nM. For the same molecule, the IC50 [2, 11] was 4710 nM, the IC90 [2] was 2140 nM and the “Cytotoxicity (% of Control)” value ([3]; 1.0E−04 M) was 107 % of Control. For the same molecule, the “Cytotoxicity (% of Control)” value ([3]; 1.0E−05 M) was 101 % of Control, the “Cytotoxicity (% of Control)” value ([3]; 1.3E−06 M) was 96 % of Control and the “Cytotoxicity (% of Control)” value ([3]; 2.5E−05 M) was 93 % of Control. The “Cytotoxicity (% of Control)” value ([3]; 2.5E−06 M) was 101 % of Control, the “Cytotoxicity (% of Control)” value ([3]; 5.0E−05 M) was 101 % of Control and the “Cytotoxicity (% of Control)” value ([3]; 5.0E−06 M) was 103 % of Control. The “Cytotoxicity (% of Control)” value ([3]; 6.3E−07 M) was 99 % of Control, the IC50 (Mia PaCa-2) was 800 nM and the IC50 (MRC-5) was 12.7 µM. For the same molecule, the IC50 (melanoma cells B16F10) was 920 nM, the IC90 (melanoma cells B16F10) was 2640 nM and the IC50 [4] was 3340 nM. For the same molecule, the “cells undergoing apoptosis (early and late)” value (UMSCC-2 HNSCC cells; 5 μM, 24-hour exposure, HNSCC cells) was 18%, the IC50 (normal MRC-5 fibroblasts) was 8.2 µM and the IC50 [5] was 2290 nM. The IC50 [6] was 5320 nM, the IC90 [6] was 4.9 µM and the “Cell Cycle (%) G0/G1” value (SUP-B15 cells [7]; 200 nM, 48 hour treatment) was 53.1%. The “Cell Cycle (%) G2/M” value (SUP-B15 cells [7]; 200 nM, 48 hour treatment) was 26.4%, the “Cell Cycle (%) S” value (SUP-B15 cells [7]; 200 nM, 48 hour treatment) was 19.5% and the “Cell Cycle (%) G0/G1” value (SUP-B15 cells [7]; 400 nM, 48 hour treatment) was 54.6%. The “Cell Cycle (%) G2/M” value (SUP-B15 cells [7]; 400 nM, 48 hour treatment) was 27.1%, the “Cell Cycle (%) S” value (SUP-B15 cells [7]; 400 nM, 48 hour treatment) was 18.3% and the “Cell Cycle (%) G0/G1” value (SUP-B15 cells [7]; 800 nM, 48 hour treatment) was 47.5%. The “Cell Cycle (%) G2/M” value (SUP-B15 cells [7]; 800 nM, 48 hour treatment) was 42.2%, the “Cell Cycle (%) S” value (SUP-B15 cells [7]; 800 nM, 48 hour treatment) was 10.3% and the “Cell Cycle (%) G0/G1” value (SUP-B15 cells [7]; 1600 nM, 48 hour treatment) was 39.9%. The “Cell Cycle (%) G2/M” value (SUP-B15 cells [7]; 1600 nM, 48 hour treatment) was 44.5%, the “Cell Cycle (%) S” value (SUP-B15 cells [7]; 1600 nM, 48 hour treatment) was 15.7% and the “Cell Cycle (%) G0/G1” value (SUP-B15 cells [7]; 3200 nM, 48 hour treatment) was 49.9%. The “Cell Cycle (%) G2/M” value (SUP-B15 cells [7]; 3200 nM, 48 hour treatment) was 31.5%, the “Cell Cycle (%) S” value (SUP-B15 cells [7]; 3200 nM, 48 hour treatment) was 18.6% and the synergy with imatinib (SUP-B15 Ph+ALL cells) was “showed synergy at all concentrations tested”. The “Log ECF” value (BT20) was 0.91, the “levels of BRCA-1, HSF1, mutant p53, Notch1 and Jagged1” value ([8]; 1, 2, 4, or 8 μM) was “decreased” and the “caspase-3 activation (concentration)” value ([8]; tested 1, 2, 4, or 8 μM) was 4 to 8 µM. For the same molecule, the IC50 (HS766T) was 1300 nM, the IC50 [9] was 1680 nM and the “cell death at 24 hours, trypan blue exclusion” value (SUP-B15 cells [10]) was “caused death at 24 hours with 2× and 5×IC50 values”.
For CC(=O)OCC1=C(C)C[C@H]([C@@H](C)C2CC[C@H]3[C@@H]4C[C@H]5O[C@]56[C@@H](OC(C)=O)C=CC(=O)[C@]6(COC(C)=O)[C@H]4CC[C@]23C)OC1=O (stereo partly shown) [Compound X003, 4,19,27-triacetyl X001], the induction of apoptosis (SUP-B15 cells [1]) was “almost all cells were in either late or early apoptosis”, the IC50 (SUP-B15 Ph+ ALL cells) was 48 nM and the “Fold Difference” value (SUP-B15 Ph+ ALL cells; MRC-5 vs SUP-B15 IC50) was 31X. For the same molecule, the IC50 ([2]; Table 1, 72-hour treatment) was 540 nM, the IC50 [2, 11] was 221 nM and the IC90 [2] was 360 nM. The IC50 (Mia PaCa-2) was 350 nM, the IC50 (MRC-5) was 0.58 µM and the IC50 (melanoma cells B16F10) was 67 nM. The IC90 (melanoma cells B16F10) was 330 nM, the IC50 [4] was 910 nM and the “cells undergoing apoptosis (early and late)” value (UMSCC-2 HNSCC cells; 1 μM, UMSCC-2) was 50%. It also gave a cells undergoing apoptosis (UMSCC-2 HNSCC cells; 3 μM, UMSCC-2) of 90%, an IC50 (normal MRC-5 fibroblasts) of 1.5 µM and an IC50 [5] of 340 nM. For the same molecule, the IC50 [6] was 160 nM, the IC90 [6] was 1.3 µM and the “Cell Cycle (%) G0/G1” value (SUP-B15 cells [7]; 15 nM) was 57.4%. For the same molecule, the “Cell Cycle (%) G2/M” value (SUP-B15 cells [7]; 15 nM) was 20.7%, the “Cell Cycle (%) S” value (SUP-B15 cells [7]; 15 nM) was 21.9% and the “Cell Cycle (%) G0/G1” value (SUP-B15 cells [7]; 30 nM) was 66.4%. For the same molecule, the “Cell Cycle (%) G2/M” value (SUP-B15 cells [7]; 30 nM) was 24%, the “Cell Cycle (%) S” value (SUP-B15 cells [7]; 30 nM) was 9.5% and the “Cell Cycle (%) G0/G1” value (SUP-B15 cells [7]; 60 nM) was 62.5%. The “Cell Cycle (%) G2/M” value (SUP-B15 cells [7]; 60 nM) was 22.2%, the “Cell Cycle (%) S” value (SUP-B15 cells [7]; 60 nM) was 15.3% and the “Cell Cycle (%) G0/G1” value (SUP-B15 cells [7]; 120 nM) was 52.6%. For the same molecule, the “Cell Cycle (%) G2/M” value (SUP-B15 cells [7]; 120 nM) was 30%, the “Cell Cycle (%) S” value (SUP-B15 cells [7]; 120 nM) was 17.4% and the “combination index (CI) with imatinib” value (SUP-B15 Ph+ALL cells; 0.25×-1×IC50 of each drug) was 0.136. The synergy with imatinib (SUP-B15 Ph+ALL cells) was “showed synergy at all concentrations tested”, the IC50 (HS766T) was 400 nM and the IC50 [9] was 320 nM. The “cell death at 24 hours, trypan blue exclusion” value (SUP-B15 cells [10]) was “significant cell death at 24 hours at IC50 values”.

— US8598339B2, “Withanolide isolated from Physalis longifolia and analogs and methods of use thereof” (University of Kansas, priority 2011, dated 2013)
